Measured values published in patent publication US20240409557A1, “5,6-FUSED AND 6,6-FUSED BICYCLIC ALCOHOLS AND ETHERS AND COMPOSITIONS FOR USE AS 15-PROSTAGLANDIN DEHYDROGENASE MODULATORS” (AMGEN INC., priority 2023, published 2024).
Blank lines part the entries; values can stand above or below the molecule they belong to.

Columns and labels:
[1] = tested on: DSS-induced colitis in C57BL/6 mice; assay: In vivo mouse DSS study - histopathological analysis of colon; conditions: versus DSS + vehicle; for erosion scores / inflammation scores / sum of histopathology scores: all doses evaluated
Experimental: Histopathological analysis was performed on the […] mice from the DSS study described above. Analysis was performed on mice from the B15R, B30R, or B41R groups. Briefly, mouse colon tissues were collected at necropsy, flushed with PBS, manipulated intact into individual modified Swiss rolls, placed into separate tissue cassettes and fixed for approximately 24 hours by immersion in 10% neutral buffered formalin followed by transfer to […]. Fixed tissues were routinely processed, paraffin-embedded, sectioned, mounted on glass slides and hematoxylin and eosin stained. Glass slides were scanned and digital images were accessed for histopathology evaluation. Prior to histopathology assessment, metadata for all digital images reviewed was exported from a digital pathology platform database into an Excel spreadsheet, followed by assignment of each digital image with a random number (greater than 0 and less than 1) using the RAND function in Excel. From smallest to largest random number assigned, each digital image was retrieved for evaluation using only the RTLIMS Inventory Code as the unique identifier for each digital image. Each digital image was individually reviewed without knowledge of treatment group (blinded/masked evaluation), and with the slide label image hidden when viewing digital images. […] Scoring of tissues for DSS-induced colitis was performed using a scoring system and criteria modified and adapted from BolderBioPATH, Inc./Inotiv. Ordinal data (histopathology scores) were analyzed using a non-parametric Kruskal-Wallis one-way analysis of variance test followed by a Dunn's multiple comparison test (GraphPad Prism).
The following scoring systems were used to provide histological scores: […]

15-PGDH in A549 cells = target: T1, 15-PGDH in A549 cells (Homo sapiens, UniProt P15428); assay: A549 cellular 15-PGDH assay (PGE2 accumulation, HTRF); type: cell-based; conditions: interleukin-stimulated, inhibitor 24 hrs, PGE2 by competitive HTRF, read-out: A549 Cell Assay IC50
T1 construct: endogenous in cells; host or cells: A549
T1 sequence (P15428 1-266): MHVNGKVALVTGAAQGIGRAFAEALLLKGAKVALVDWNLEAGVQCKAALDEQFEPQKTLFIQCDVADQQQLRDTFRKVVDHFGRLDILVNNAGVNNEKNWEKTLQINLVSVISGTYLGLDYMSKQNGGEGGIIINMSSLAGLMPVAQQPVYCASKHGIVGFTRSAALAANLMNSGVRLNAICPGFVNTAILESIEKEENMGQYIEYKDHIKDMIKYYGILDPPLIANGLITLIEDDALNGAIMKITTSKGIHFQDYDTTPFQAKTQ
Method in brief: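 Supernatant PGE2 was quantified by competitive HTRF, in which sample PGE2 blocks FRET between a europium cryptate-labelled antibody and labelled PGE2. It came from A549 epithelial cells induced with IL-13. IC50s were calculated from the inversely proportional signal.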

[2] = tested on: DSS-induced colitis in C57BL/6 female mice; assay: In vivo mouse DSS study - colon length; conditions: for Colon length Mean: oral gavage, day 10; for Recovery % (vs vehicle) / Reduction % (vs naïve): colon length
Experimental: In this study, 12-week-old C57BL/6 female mice (Taconic, the Cambridge City) were supplemented with 2.5% DSS (MP Biomedicals, MW 36,000-50,000) in drinking water for days 0-7, and then switched to normal drinking water beginning on day 7 and continued through day 10. Mice were treated once/twice daily by oral gavage with different compounds of Formula (A) (e.g., B15S, B15R, B30R, or B41R) in different dosing levels or with vehicle solution of 2% HPMC, 1% Tween 80 (w/v) in DI water starting on day 0. Mice were sacrificed on day 10 for assessment of colon length. The DSS-induced model of colitis is a widely used animal model for studying the pathogenesis of and potential treatments for UC, which is a primary form of IBD. DSS water intake causes colonic mucosa injury and erosion, gland loss, and infiltration of proinflammatory immune cells in the colon tissue, followed by mucosal repair and tissue remodeling. This is manifested by a shortened colon, the degree of which correlates well with the severity of mucosal injury in this mouse model of DSS-induced experimental colitis.

[3] = target: T2, human recombinant 15-PGDH (Homo sapiens, UniProt P15428); assay: Recombinant 15-PGDH enzymatic inhibition assay (PGDH-Lumi, NADH signal); type: biochemical; conditions: for IC50: recombinant 15-PGDH, 15 min pre-incubation, 60 min reaction with PGE2 and NAD+, NADH signal
T2 sequence (P15428 1-266): T1 sequence (P15428 1-266)
Method in brief: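 Buffer 50 mM Tris pH 7.5 with 0.01% Tween-20 and […]; compound, 22 two-fold dilutions, pre-incubated with enzyme 15 min before substrate.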

IC50 (15-PGDH in A549 cells): 233 pM
IC50 [3]: 159 pM
SMILES: Cn1cc2cc(-c3ccc4cc([C@H](O)C5CC(F)(F)C5)sc4n3)cnc2n1 (single isomer, unassigned) [Compound B30R]
erosion scores [1]: decreased severity
inflammation scores [1]: decreased severity
sum of histopathology scores [1]: decreased severity
gland loss scores ([1]; at 0.625 mg/kg BID, 1.25 mg/kg QD, 2.5 mg/kg BID and 5 mg/kg QD): decreased severity
Colon length Mean ([2]; 0.625 mpk, BID): 7.622 cm
Colon length Mean ([2]; 1.25 mpk, QD): 7.733 cm
Colon length Mean ([2]; 2.5 mpk, BID): 7.780 cm
Colon length Mean ([2]; 5 mpk, QD): 8.360 cm
Colon length Mean ([2]; 10 mpk, QD): 8.110 cm
Colon length Mean ([2]; 20 mpk, QD): 8.188 cm
Recovery % (vs vehicle) ([2]; 0.625 mpk, BID): 56.343%
Reduction % (vs naïve) ([2]; 0.625 mpk, BID): 9.413%
Recovery % (vs vehicle) ([2]; 1.25 mpk, QD): 62.467%
Reduction % (vs naïve) ([2]; 1.25 mpk, QD): 8.093%
Recovery % (vs vehicle) ([2]; 2.5 mpk, BID): 65.039%
Reduction % (vs naïve) ([2]; 2.5 mpk, BID): 7.538%
Recovery % (vs vehicle) ([2]; 5 mpk, QD): 97.008%
Reduction % (vs naïve) ([2]; 5 mpk, QD): 0.645%
Recovery % (vs vehicle) ([2]; 10 mpk, QD): 83.228%
Reduction % (vs naïve) ([2]; 10 mpk, QD): 3.616%
Recovery % (vs vehicle) ([2]; 20 mpk, QD): 87.5%
Reduction % (vs naïve) ([2]; 20 mpk, QD): 2.265%
colon length comparing to vehicle group ([2]; different doses daily): significant improvement of colon length

IC50 (15-PGDH in A549 cells): 2160 pM
IC50 [3]: 955 pM
SMILES: Cn1nnc2cc(-c3ccc4cc([C@H](O)C5CCOCC5)sc4n3)cnc21 (single isomer, unassigned) [Compound B41R]
erosion scores [1]: decreased severity
inflammation scores [1]: decreased severity
sum of histopathology scores [1]: decreased severity
gland loss scores ([1]; at 0.1 mg/kg QD and >0.625 mg/kg QD): decreased severity
colon length comparing to vehicle group ([2]; 2.5 mg/kg and 10 mg/kg daily): significant improvement of colon length
Colon length Mean ([2]; 0.1 mpk, QD): 7.0 cm
Colon length Mean ([2]; 0.25 mpk, QD): 6.8 cm
Colon length Mean ([2]; 0.625 mpk, QD): 7.3 cm
Colon length Mean ([2]; 2.5 mpk, QD): 7.3 cm
Colon length Mean ([2]; 10 mpk, QD): 7.9 cm
Recovery % (vs vehicle) ([2]; 0.1 mpk, QD): 25.46%
Reduction % (vs naïve) ([2]; 0.1 mpk, QD): 14.63%
Recovery % (vs vehicle) ([2]; 0.25 mpk, QD): 11.18%
Reduction % (vs naïve) ([2]; 0.25 mpk, QD): 17.44%
Recovery % (vs vehicle) ([2]; 0.625 mpk, QD): 40.99%
Reduction % (vs naïve) ([2]; 0.625 mpk, QD): 11.59%
Recovery % (vs vehicle) ([2]; 2.5 mpk, QD): 45.34%
Reduction % (vs naïve) ([2]; 2.5 mpk, QD): 10.73%
Recovery % (vs vehicle) ([2]; 10 mpk, QD): 82.06%
Reduction % (vs naïve) ([2]; 10 mpk, QD): 3.52%

IC50 (15-PGDH in A549 cells): 499 pM
times less potent than B15R in the biochemical assay ([3]; S-enantiomer versus R-enantiomer): around 200
IC50 [3]: 150000 pM
SMILES: Cn1cc2cc(-c3ccc4cc([C@@H](O)C5CCOCC5)sc4n3)cnc2n1 [Compound B15S, (S)-(6-(2-methyl-2H-pyrazolo[3,4-b]pyridin-5-yl)thieno[2,3-b]pyridin-2-yl)(tetrahydro-2H-pyran-4-yl)methanol]
colon length comparing to vehicle group ([2]; 5 mg/kg and 20 mg/kg once daily): significant improvement of colon length
Colon length Mean ([2]; 0.625 mpk, BID): 6.51 cm
Colon length Mean ([2]; 1.25 mpk, QD): 6.60 cm
Colon length Mean ([2]; 2.5 mpk, BID): 6.52 cm
Colon length Mean ([2]; 5 mpk, QD): 6.90 cm
Colon length Mean ([2]; 20 mpk, QD): 6.97 cm
Recovery % (vs vehicle) ([2]; 0.625 mpk, BID): 13.4%
Reduction % (vs naïve) ([2]; 0.625 mpk, BID): 24.8%
Recovery % (vs vehicle) ([2]; 1.25 mpk, QD): 17.0%
Reduction % (vs naïve) ([2]; 1.25 mpk, QD): 23.7%
Recovery % (vs vehicle) ([2]; 2.5 mpk, BID): 13.7%
Reduction % (vs naïve) ([2]; 2.5 mpk, BID): 24.7%
Recovery % (vs vehicle) ([2]; 5 mpk, QD): 29.0%
Reduction % (vs naïve) ([2]; 5 mpk, QD): 20.3%
Recovery % (vs vehicle) ([2]; 20 mpk, QD): 31.9%
Reduction % (vs naïve) ([2]; 20 mpk, QD): 19.5%

IC50 (15-PGDH in A549 cells): 1350 pM
IC50 [3]: 780 pM
SMILES: Cc1nc2ncc(-c3ccc4cc(C5(O)CC(F)(F)C5)sc4n3)cc2o1 [Compound C34, 3,3-difluoro-1-(6-(2-methyl[1,3]oxazolo[4,5-b]pyridin-6-yl)thieno[2,3-b]pyridin-2-yl)cyclobutanol]

IC50 (15-PGDH in A549 cells): 3750 pM
IC50 [3]: 4590 pM
SMILES: Nc1ncc(-c2ccc3cc(C4(O)CC(F)(F)C4)sc3n2)cn1 [Compound C38, 1-(6-(2-amino-5-pyrimidinyl)thieno[2,3-b]pyridin-2-yl)-3,3-difluorocyclobutanol]

IC50 (15-PGDH in A549 cells): 33000 pM
IC50 [3]: 14400 pM
SMILES: Cc1c2cnc(-c3cnc4nn(C)cc4c3)nc2sc1[C@]1(O)C[C@@H](C(F)F)C1 [Compound C90C, cis-3-(difluoromethyl)-1-(5-methyl-2-(2-methyl-2H-pyrazolo[3,4-b]pyridin-5-yl)thieno[2,3-d]pyrimidin-6-yl)cyclobutanol]

IC50 (15-PGDH in A549 cells): 303 pM
IC50 [3]: 396 pM
SMILES: [2H][C@](O)(c1cc2ccc(-c3cnc4nn(C)cc4c3)nc2s1)C1CCOCC1 (single isomer, unassigned) [Compound B66R]

IC50 (15-PGDH in A549 cells): 1960 pM
IC50 [3]: 587 pM
SMILES: Cc1nc2cc(-c3ccc4cc([C@]5(O)C[C@@H](C(F)F)C5)sc4n3)cnc2[nH]1 [Compound C93C, cis-3-(difluoromethyl)-1-(6-(2-methyl-3H-imidazo[4,5-b]pyridin-6-yl)thieno[2,3-b]pyridin-2-yl)cyclobutanol]

IC50 (15-PGDH in A549 cells): 517 pM
IC50 [3]: 379 pM
SMILES: Cn1cc2cc(-c3ccc4cc([C@H](O)[C@@H]5CC5(F)F)sc4n3)cnc2n1 (single isomer, unassigned) [Compound B85RS]

IC50 (15-PGDH in A549 cells): 2280 pM
IC50 [3]: 9010 pM
SMILES: Cc1cn2cc(-c3ccc4cc(C5(O)CC(F)(F)C5)sc4n3)ccc2n1 [Compound C37, 3,3-difluoro-1-(6-(2-methylimidazo[1,2-a]pyridin-6-yl)thieno[2,3-b]pyridin-2-yl)cyclobutanol]

IC50 (15-PGDH in A549 cells): 143 pM
IC50 [3]: 620 pM
SMILES: Cn1cc2cc(-c3ncc4cc(C5(O)CC(C)(C)C5)sc4n3)cnc2n1 [Compound C57, 3,3-dimethyl-1-(2-(2-methyl-2H-pyrazolo[3,4-b]pyridin-5-yl)thieno[2,3-d]pyrimidin-6-yl)cyclobutanol]

IC50 (15-PGDH in A549 cells): 32.1 pM
IC50 [3]: 366 pM
SMILES: Cn1cc2cc(-c3ccc4cc([C@]5(O)C[C@@H](C6CC6)C5)sc4n3)cnc2n1 (single isomer, unassigned) [Compound C62C, cis-3-cyclopropyl-1-(6-(2-methyl-2H-pyrazolo[3,4-b]pyridin-5-yl)thieno[2,3-b]pyridin-2-yl)cyclobutanol]

IC50 (15-PGDH in A549 cells): 268000 pM
IC50 [3]: 537000 pM
SMILES: Cn1cc2cc(-c3ccc4ccc(C5(O)CC(C)(C)C5)cc4n3)cnc2n1 [Compound D2, 3,3-dimethyl-1-(2-(2-methyl-2H-pyrazolo[3,4-b]pyridin-5-yl)-7-quinolinyl)cyclobutanol]

IC50 (15-PGDH in A549 cells): 1030 pM
IC50 [3]: 832 pM
SMILES: Cn1nnc2cc(-c3ccc4cc([C@]5(O)C[C@@H](C(F)F)C5)sc4n3)cnc21 [Compound C76C, cis-3-(difluoromethyl)-1-(6-(3-methyl-3H-[1,2,3]triazolo[4,5-b]pyridin-6-yl)thieno[2,3-b]pyridin-2-yl)cyclobutanol]

IC50 (15-PGDH in A549 cells): 47.9 pM
IC50 [3]: 216 pM
SMILES: Cn1cc2cc(-c3ccc4nc([C@H](O)C5CC(F)(F)C5)sc4n3)cnc2n1 (single isomer, unassigned) [Compound B72R]

IC50 (15-PGDH in A549 cells): 9560 pM
IC50 [3]: 12200 pM
SMILES: Cn1cc2cc(-c3ccc4cc([C@@H](O)C5COC5)sc4n3)cnc2n1 (single isomer, unassigned) [Compound B28S]
